In patent US7037914B2, “Carboxylic acid derivative and a pharmaceutical composition containing the derivative as active ingredient” (Ono Pharmaceutical Co., Ltd., priority 1998, dated 2006):

What was measured:
[1] = molecular target: T1, human PPAR α (Homo sapiens, UniProt Q07869); assay: Luciferase assay using human PPAR α (Gal4-PPAR chimeric receptor in CV-1 cells); assay type: cell-based; conditions: compound 0.3 μM; luciferase activity of carbaprostacylin 10 μM defined as 1.0
T1 construct: expressed in transfected cells; host or cells: CV-1 cells
T1 sequence (Q07869 167-468): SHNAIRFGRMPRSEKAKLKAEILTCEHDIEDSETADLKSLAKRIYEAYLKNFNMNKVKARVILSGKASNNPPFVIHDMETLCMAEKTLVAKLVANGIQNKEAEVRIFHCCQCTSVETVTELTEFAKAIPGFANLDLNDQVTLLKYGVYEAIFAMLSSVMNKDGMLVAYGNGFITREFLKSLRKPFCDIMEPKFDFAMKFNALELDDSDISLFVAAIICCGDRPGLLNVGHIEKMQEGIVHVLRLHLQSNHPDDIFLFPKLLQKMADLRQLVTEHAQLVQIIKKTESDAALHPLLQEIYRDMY

[2] = molecular target: T2, human PPAR γ (Homo sapiens, UniProt P37231); assay: Luciferase assay using human PPAR γ (Gal4-PPAR chimeric receptor in CV-1 cells); assay type: cell-based; conditions: compound 1.0 μM; luciferase activity of troglitazone 10 μM defined as 1.0
T2 construct: expressed in transfected cells; host or cells: CV-1 cells
T2 sequence (P37231 176-477 isoform P37231-2): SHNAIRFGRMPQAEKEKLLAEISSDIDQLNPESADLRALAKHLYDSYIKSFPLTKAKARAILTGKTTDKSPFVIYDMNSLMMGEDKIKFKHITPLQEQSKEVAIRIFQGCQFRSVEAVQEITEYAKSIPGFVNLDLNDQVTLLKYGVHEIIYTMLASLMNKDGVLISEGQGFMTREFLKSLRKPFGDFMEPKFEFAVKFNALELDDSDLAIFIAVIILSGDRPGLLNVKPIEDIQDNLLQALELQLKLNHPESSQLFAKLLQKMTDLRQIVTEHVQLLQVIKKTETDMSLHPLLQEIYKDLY

[3] = tested on: KKAy/Ta mice; assay: Hypoglycemic and hypolipidemic effects in KKAy mice; assay type: in vivo; conditions: 3 days, food containing 0.03 % (w/w) compound, 38.9 mg/kg/day (converted)
Source text: Hypoglycemic and hypolipidemic effects in KKAy mice:
Male, 7-weeks old KKAy/Ta mice weighed from […] (seven mice per group) were pre-breaded for approximately one week and acclimatized for three days on milled diet. On the first day of the experiment (Day 0), mice were divided into some groups by weight, plasma glucose and triglyceride (TG) levels to minimize the differences among groups. From the next day for two days they were given compounds by food mixture containing 0.03 % (w/w) of the compound of the present invention or by milled diet only. At 13:00 of the third day, blood samples were collected and glucose and TG were measured. Additionally, there was no significant difference in the food intake between control group (milled diet only) and compounds-treated group (milled diet containing 0.03 % compounds).

[4] = tested on: SD rats; assay: Hypocholesterolemic and hypolipidemic effects in normal rats; assay type: in vivo; conditions: 10 mg/kg orally, hypercholesterolemic food, blood sampled next day
Source text: Hypocholesterolemic and hypolipidemic effects in normal rats:
Male, six-weeks old SD rats (seven rats per group) were left to take milled diet and water ad libitum and were acclimatized for 1 week.
At 9:00 on the first day of the experiment (Day 0) blood sampling was done from tail vein. The rats were divided into some groups by body weight, triglyceride(TG), non-esterified fatty acid (NEFA), total cholesterol (TC) values to minimize differences of the parameters among the groups. At 17:00 of the day the compound of the present invention suspended in 0.5% aqueous solution of carboxymethylcellulose (CMC) was orally administered at a dose of 10 mg/kg, and thereafter, with hypercholesterolemic food (5.5% peanut oil, 1.5% cholesterol and 0.5% cholic acid were mixed with milled CRF-1 diet, Charles River Inc.) was given to the rats.
At 9:00 of the next day, blood sampling was done from tail vein. The lipid values in blood (TG, NEFA and TC values) were measured.
There was no significant difference of the food intake between the control group (provided only 0.5% CMC) and the group treated with the compounds of the present invention.

[5] = molecular target: T3, human PPAR δ (Homo sapiens, UniProt Q03181); assay: Luciferase assay using human PPAR δ (Gal4-PPAR chimeric receptor in CV-1 cells); assay type: cell-based; conditions: luciferase activity with solvent containing no compound defined as 1.0
T3 construct: expressed in transfected cells; host or cells: CV-1 cells
T3 sequence (Q03181 139-441): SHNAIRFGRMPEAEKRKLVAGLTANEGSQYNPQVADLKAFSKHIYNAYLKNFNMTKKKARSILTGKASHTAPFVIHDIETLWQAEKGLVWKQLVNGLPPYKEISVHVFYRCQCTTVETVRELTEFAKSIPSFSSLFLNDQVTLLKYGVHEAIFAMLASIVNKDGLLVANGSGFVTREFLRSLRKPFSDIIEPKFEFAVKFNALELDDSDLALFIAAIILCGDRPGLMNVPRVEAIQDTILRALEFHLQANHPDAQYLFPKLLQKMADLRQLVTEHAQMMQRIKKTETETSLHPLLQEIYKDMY

Cc1oc(-c2ccccc2)nc1CCOc1cccc(CCCC(=O)O)c1 [Example 2 (5), 4-(3-(2-(5-methyl-2-phenyloxazol-4-yl)ethoxy)phenyl)butanoic acid]
PPAR α agonist activity, Relative Activity [1]: 0.8

O=C(O)CSCc1cccc(OCc2ccc(-c3ccccc3)cc2)c1 [Example 2 (11), 2-(3-(biphenyl-4-ylmethoxy)phenylmethylthio)acetic acid]
PPAR α agonist activity, Relative Activity [1]: 3.2

Cc1oc(-c2ccccc2)nc1CCOc1cccc(CSCC(=O)O)c1 [Example 2 (12), 2-(3-(2-(5-methyl-2-phenyloxazol-4-yl)ethoxy)phenylmethylthio)acetic acid]
PPAR γ agonist activity, Relative Activity [2]: 1.4 | PPAR α agonist activity, Relative Activity [1]: 1.7 | glycemic value ([3]; control 495 ± 35): 214 ± 19 mg/dL | TG value ([3]; control 558 ± 107): 221 ± 66 mg/dL | TG value ([4]; control 147 ± 9): 100 ± 14 mg/dL | TC value ([4]; control 188 ± 5): 70 ± 5 mg/dL | NEFA value ([4]; control 489 ± 66): 178 ± 14 μEq/l

Cc1oc(-c2ccccc2)nc1CCOc1cccc(CC(=O)O)c1 [Example 2 (22)]
PPAR δ agonist activity, relative activity ([5]; concentration 1.0 μM): 9.3 | PPAR δ agonist activity, relative activity ([5]; concentration 10.0 μM): 66.7

Cc1oc(-c2ccc3c(c2)OCO3)nc1CCOc1cccc(CC(=O)O)c1 [Example 2 (93), 2-(3-(2-(5-methyl-2-(1,3-dioxaindan-5-yl)oxazol-4-yl)ethoxy)phenyl)acetic acid]
PPAR δ agonist activity, relative activity ([5]; concentration 1.0 μM): 36.1 | PPAR δ agonist activity, relative activity ([5]; concentration 10.0 μM): 54.7
